According to patent US20240368173A1, “TRICYCLIC GPR65 MODULATORS” (PATHIOS THERAPEUTICS LIMITED, priority 2021, published 2024):

target: human recombinant GPR65 (Homo sapiens, UniProt Q8IYL9); test: Human GPR65 cAMP HTRF antagonist assay; format: cell-based; settings: not given
How it was run: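 Antagonism measured as suppression of the cAMP rise when pH is dropped to 7.2 (control wells pH 7.9) in 1321N1 cells stably carrying human GPR65. Cells in KRH with 1 mM IBMX and 200 μM EDTA saw compound 30 min, then acid stimulation 30 min; HTRF cAMP detection, normalised, 4-parameter logistic IC50.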

Chain of human recombinant GPR65 (Q8IYL9 whole entry): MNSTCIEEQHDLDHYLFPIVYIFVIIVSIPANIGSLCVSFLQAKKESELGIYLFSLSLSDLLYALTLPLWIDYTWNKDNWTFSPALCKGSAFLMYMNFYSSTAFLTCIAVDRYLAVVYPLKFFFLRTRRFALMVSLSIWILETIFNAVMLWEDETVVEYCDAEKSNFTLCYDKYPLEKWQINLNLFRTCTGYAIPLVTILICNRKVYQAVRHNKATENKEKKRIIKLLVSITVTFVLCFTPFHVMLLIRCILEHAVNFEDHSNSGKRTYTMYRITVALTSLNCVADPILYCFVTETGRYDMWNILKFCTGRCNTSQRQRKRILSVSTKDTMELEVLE

| SMILES | IC50 [nM] |
| --- | --- |
| CO[C@H]1CC[C@H](Oc2ccc(-c3cc(F)c(NC(=O)N4[C@H]5CC[C@@H]4c4n[nH]c(=O)cc4C5)cc3Cl)cn2)CC1 [Compound 337, (6S,9R)-N-(5-chloro-2-fluoro-4-(6-(((1r,4r)-4-methoxycyclohexyl)oxy)pyridin-3-yl)phenyl)-3-oxo-3,5,6,7,8,9-hexahydro-2H-6,9-epiminocyclohepta[c]pyridazine-10-carboxamide] | < 500 |
| O=C(Nc1cc(Cl)c(-c2cnc(F)c(F)c2)cc1F)N1[C@H]2CC[C@@H]1c1ccnc(F)c1C2 [Compound 262, (5R,8S)-N-(5-chloro-4-(5,6-difluoropyridin-3-yl)-2-fluorophenyl)-1-fluoro-6,7,8,9-tetrahydro-5H-5,8-epiminocyclohepta[c]pyridine-10-carboxamide] | < 500 |
| O=C(Nc1cc(Cl)c(-c2ccc(OC(C(F)F)C(F)F)nc2)cc1F)N1[C@H]2CC[C@@H]1c1n[nH]c(=O)cc1C2 [Compound 331, (6S,9R)-N-(5-Chloro-2-fluoro-4-(6-((1,1,3,3-tetrafluoropropan-2-yl)oxy)pyridin-3-yl)phenyl)-3-oxo-3,5,6,7,8,9-hexahydro-2H-6,9-epiminocyclohepta[c]pyridazine-10-carboxamide] | < 500 |
| COc1cncc(-c2cc(F)c(NC(=O)N3[C@H]4CC[C@@H]3c3ccnc(F)c3C4)cc2Cl)c1 [Compound 248, (5R,8S)-N-(5-Chloro-2-fluoro-4-(5-methoxypyridin-3-yl)phenyl)-1-fluoro-6,7,8,9-tetrahydro-5H-5,8-epiminocyclohepta[c]pyridine-10-carboxamide] | < 500 |
| CO[C@H]1C[C@H](Oc2ccc(-c3cc(F)c(NC(=O)N4[C@H]5CC[C@@H]4c4c[nH]c(=O)cc4C5)cc3Cl)cn2)C1 [Compound 317, (6S,9R)-N-(5-Chloro-2-fluoro-4-(6-((1r,3R)-3-methoxycyclobutoxy)pyridin-3-yl)phenyl)-3-oxo-3,5,6,7,8,9-hexahydro-2H-6,9-epiminocyclohepta[c]pyridine-10-carboxamide] | < 500 |
| O=C(Nc1cc(Cl)c(-c2ccc3nsnc3c2)cc1F)N1[C@H]2CC[C@@H]1c1c[nH]c(=O)cc1C2 [Compound 176, (6S,9R)-N-(4-(benzo[c][1,2,5]thiadiazol-5-yl)-5-chloro-2-fluorophenyl)-3-oxo-3,5,6,7,8,9-hexahydro-2H-6,9-epiminocyclohepta[c]pyridine-10-carboxamide] | < 500 |
| O=C(Nc1cc(Cl)c(-c2ccsn2)cc1F)N1[C@H]2CC[C@@H]1c1n[nH]c(=O)cc1C2 [Compound 191, (6S,9R)-N-(5-Chloro-2-fluoro-4-(isothiazol-3-yl)phenyl)-3-oxo-3,5,6,7,8,9-hexahydro-2H-6,9-epiminocyclohepta[c]pyridazine-10-carboxamide] | < 500 |
| O=C(Nc1cc(Cl)c(C(F)(F)F)cc1F)N1C2CCC1c1n[nH]c(=O)cc1C2 (racemic) [Compound 1, (±)—N-(5-chloro-2-fluoro-4-(trifluoromethyl)phenyl)-3-oxo-3,5,6,7,8,9-hexahydro-2H-6,9-epiminocyclohepta[c]pyridazine-10-carboxamide] | < 500 |
| O=C(Nc1cc(Cl)c(-c2ccc3nonc3c2F)cc1F)N1[C@H]2CC[C@@H]1c1n[nH]c(=O)cc1C2 [Compound 327, (6S,9R)-N-(5-Chloro-2-fluoro-4-(4-fluorobenzo[c][1,2,5]oxadiazol-5-yl)phenyl)-3-oxo-3,5,6,7,8,9-hexahydro-2H-6,9-epiminocyclohepta[c]pyridazine-10-carboxamide] | < 500 |
| O=C(Nc1cc(Cl)c(-c2ccc(OCC(F)F)nc2)cc1F)N1[C@H]2CC[C@@H]1c1n[nH]c(=O)cc1C2 [Compound 305, (6S,9R)-N-(5-Chloro-4-(6-(2,2-difluoroethoxy)pyridin-3-yl)-2-fluorophenyl)-3-oxo-3,5,6,7,8,9-hexahydro-2H-6,9-epiminocyclohepta[c]pyridazine-10-carboxamide] | < 500 |
| COc1ccc(-c2cc(F)c(NC(=O)N3[C@H]4CC[C@@H]3c3n[nH]c(=O)cc3C4)cc2F)cn1 [Compound 247, (6S,9R)-N-(2,5-Difluoro-4-(6-methoxypyridin-3-yl)phenyl)-3-oxo-3,5,6,7,8,9-hexahydro-2H-6,9-epiminocyclohepta[c]pyridazine-10-carboxamide] | < 500 |
| O=C(Nc1cc(Cl)c(-c2cncc(CF)c2)cc1F)N1[C@H]2CC[C@@H]1c1n[nH]c(=O)cc1C2 [Compound 311, (6S,9R)—N-(5-Chloro-2-fluoro-4-(5-(fluoromethyl)pyridin-3-yl)phenyl)-3-oxo-3,5,6,7,8,9-hexahydro-2H-6,9-epiminocyclohepta[c]pyridazine-10-carboxamide] | < 500 |
| Cn1ncc(-c2cc(F)c(NC(=O)N3[C@H]4CC[C@@H]3c3n[nH]c(=O)cc3C4)cc2Cl)n1 [Compound 139, (6S,9R)-N-(5-Chloro-2-fluoro-4-(2-methyl-2H-1,2,3-triazol-4-yl)phenyl)-3-oxo-3,5,6,7,8,9-hexahydro-2H-6,9-epiminocyclohepta[c]pyridazine-10-carboxamide] | < 500 |
| COc1ccc(-c2cc(F)c(NC(=O)N3[C@H]4CC[C@@H]3c3n[nH]c(=O)cc3C4)cc2Cl)c(F)n1 [Compound 202, (6S,9R)-N-(5-Chloro-2-fluoro-4-(2-fluoro-6-methoxypyridin-3-yl)phenyl)-3-oxo-3,5,6,7,8,9-hexahydro-2H-6,9-epiminocyclohepta[c]pyridazine-10-carboxamide] | < 500 |
| O=C(Nc1cc(Cl)c(-c2ncco2)cc1F)N1[C@H]2CC[C@@H]1c1n[nH]c(=O)cc1C2 [Compound 181, (6S,9R)-N-(5-Chloro-2-fluoro-4-(oxazol-2-yl)phenyl)-3-oxo-3,5,6,7,8,9-hexahydro-2H-6,9-epiminocyclohepta[c]pyridazine-10-carboxamide] | 500 to 5000 |
| COc1ccc(-c2cc(F)c(NC(=O)N3[C@H]4CC[C@@H]3c3ccnc(F)c3C4)cc2Cl)c(F)n1 [Compound 214, (5R,8S)-N-(5-Chloro-2-fluoro-4-(2-fluoro-6-methoxypyridin-3-yl)phenyl)-1-fluoro-6,7,8,9-tetrahydro-5H-5,8-epiminocyclohepta[c]pyridine-10-carboxamide] | < 500 |
| O=C(Nc1cc(Cl)c(C(F)(F)F)cc1F)N1[C@H]2CC[C@@H]1c1c[nH]c(=O)nc1C2 [Compound 24, (5R,8S)-N-(5-Chloro-2-fluoro-4-(trifluoromethyl)phenyl)-2-oxo-3,5,6,7,8,9-hexahydro-2H-5,8-epiminocyclohepta[d]pyrimidine-10-carboxamide] | < 500 |
| CS(=O)(=O)c1ccc(-c2cc(F)c(NC(=O)N3[C@H]4CC[C@@H]3c3n[nH]c(=O)cc3C4)cc2Cl)cc1F [Compound 132, (6S,9R)-N-(2-Chloro-3′,5-difluoro-4′-(methylsulfonyl)-[1,1′-biphenyl]-4-yl)-3-oxo-3,5,6,7,8,9-hexahydro-2H-6,9-epiminocyclohepta[c]pyridazine-10-carboxamide] | < 500 |
| O=C(Nc1cc(Cl)c(-c2ccc(OCC3CC3(F)F)nc2)cc1F)N1[C@H]2CC[C@@H]1c1n[nH]c(=O)cc1C2 (stereo partly drawn) [Compound 338, (6S,9R)-N-(5-Chloro-4-(6-((2,2-difluorocyclopropyl)methoxy)pyridin-3-yl)-2-fluorophenyl)-3-oxo-3,5,6,7,8,9-hexahydro-2H-6,9-epiminocyclohepta[c]pyridazine-10-carboxamide] | < 500 |

same assay, conditions: 1321N1-hrGPR65 cells, cAMP HTRF, assay pH 7.2; read-out: hGPR65 IC50 (Activity of selected compounds according to the invention)

| SMILES | IC50 [nM] |
| --- | --- |
| O=C(Nc1cc(Cl)c(-c2cccc(CN3CCCC3)c2)cc1F)N1[C@H]2CC[C@@H]1c1n[nH]c(=O)cc1C2 [Compound 135, (6S,9R)-N-(2-Chloro-5-fluoro-3′-(pyrrolidin-1-ylmethyl)-[1,1′-biphenyl]-4-yl)-3-oxo-3,5,6,7,8,9-hexahydro-2H-6,9-epiminocyclohepta[c]pyridazine-10-carboxamide] | 500 to 5000 |
| Cn1nc2c(cc1=O)CC1CCC2N1C(=O)Nc1cc(Cl)c(Cl)cc1F (racemic) [Compound 83, (±)-N-(4,5-Dichloro-2-fluorophenyl)-2-methyl-3-oxo-3,5,6,7,8,9-hexahydro-2H-6,9-epiminocyclohepta[c]pyridazine-10-carboxamide] | 500 to 5000 |
| O=C(Nc1cc(Cl)c(Br)cc1F)N1[C@@H]2CC[C@H]1c1n[nH]c(=O)cc1C2 [Compound 33, (6R,9S)-N-(4-Bromo-5-chloro-2-fluorophenyl)-3-oxo-3,5,6,7,8,9-hexahydro-2H-6,9-epiminocyclohepta[c]pyridazine-10-carboxamide] | > 5000 |
| O=C(Nc1cc(Cl)c(C(F)(F)F)cc1F)N1C2CC[C@@H]1c1ccnc(F)c1C2O (mixture of isomers) [Compound 204, (±)—(R)—N-(5-chloro-2-fluoro-4-(trifluoromethyl)phenyl)-1-fluoro-9-hydroxy-6,7,8,9-tetrahydro-5H-5,8-epiminocyclohepta[c]pyridine-10-carboxamide] | 500 to 5000 |
| CS(=O)(=O)c1ccc(-c2cc(F)c(NC(=O)N3[C@H]4CC[C@@H]3c3n[nH]c(=O)cc3C4)cc2Cl)cn1 [Compound 180, (6S,9R)-N-(5-Chloro-2-fluoro-4-(6-(methylsulfonyl)pyridin-3-yl)phenyl)-3-oxo-3,5,6,7,8,9-hexahydro-2H-6,9-epiminocyclohepta[c]pyridazine-10-carboxamide] | 500 to 5000 |
| N#Cc1cnc(F)c2c1[C@H]1CC[C@@H](C2)N1C(=O)Nc1cc(Cl)c(Cl)cc1F [Compound 160, (5R,8S)-4-Cyano-N-(4,5-dichloro-2-fluorophenyl)-1-fluoro-6,7,8,9-tetrahydro-5H-5,8-epiminocyclohepta[c]pyridine-10-carboxamide] | 500 to 5000 |
| O=C(Nc1cc(Cl)c(-c2cncn2C2CCCCO2)cc1F)N1[C@H]2CC[C@@H]1c1n[nH]c(=O)cc1C2 (stereo partly drawn) [Compound 143, (6S,9R)-N-(5-Chloro-2-fluoro-4-(1-(tetrahydro-2H-pyran-2-yl)-1H-imidazol-5-yl)phenyl)-3-oxo-3,5,6,7,8,9-hexahydro-2H-6,9-epiminocyclohepta[c]pyridazine-10-carboxamide] | 500 to 5000 |
